US5525735A, “Methods for synthesizing diverse collections of pyrrolidine compounds” (AFFYMAX Technologies NV, priority 1994, dated 1996)
Like-named read-outs stand apart in the source and are kept apart here.

Assays:
rabbit kidney ACE [1] = target: T1, rabbit kidney ACE (Oryctolagus cuniculus, UniProt P12822); assay: Determination of inhibition constants (Ki), fluorometric ACE assay, hydrolysis of Hippuryl-His-Leu; format: biochemical
T1 construct: purchased Sigma; host or cells: rabbit kidney
T1 sequence (P12822 34-1310): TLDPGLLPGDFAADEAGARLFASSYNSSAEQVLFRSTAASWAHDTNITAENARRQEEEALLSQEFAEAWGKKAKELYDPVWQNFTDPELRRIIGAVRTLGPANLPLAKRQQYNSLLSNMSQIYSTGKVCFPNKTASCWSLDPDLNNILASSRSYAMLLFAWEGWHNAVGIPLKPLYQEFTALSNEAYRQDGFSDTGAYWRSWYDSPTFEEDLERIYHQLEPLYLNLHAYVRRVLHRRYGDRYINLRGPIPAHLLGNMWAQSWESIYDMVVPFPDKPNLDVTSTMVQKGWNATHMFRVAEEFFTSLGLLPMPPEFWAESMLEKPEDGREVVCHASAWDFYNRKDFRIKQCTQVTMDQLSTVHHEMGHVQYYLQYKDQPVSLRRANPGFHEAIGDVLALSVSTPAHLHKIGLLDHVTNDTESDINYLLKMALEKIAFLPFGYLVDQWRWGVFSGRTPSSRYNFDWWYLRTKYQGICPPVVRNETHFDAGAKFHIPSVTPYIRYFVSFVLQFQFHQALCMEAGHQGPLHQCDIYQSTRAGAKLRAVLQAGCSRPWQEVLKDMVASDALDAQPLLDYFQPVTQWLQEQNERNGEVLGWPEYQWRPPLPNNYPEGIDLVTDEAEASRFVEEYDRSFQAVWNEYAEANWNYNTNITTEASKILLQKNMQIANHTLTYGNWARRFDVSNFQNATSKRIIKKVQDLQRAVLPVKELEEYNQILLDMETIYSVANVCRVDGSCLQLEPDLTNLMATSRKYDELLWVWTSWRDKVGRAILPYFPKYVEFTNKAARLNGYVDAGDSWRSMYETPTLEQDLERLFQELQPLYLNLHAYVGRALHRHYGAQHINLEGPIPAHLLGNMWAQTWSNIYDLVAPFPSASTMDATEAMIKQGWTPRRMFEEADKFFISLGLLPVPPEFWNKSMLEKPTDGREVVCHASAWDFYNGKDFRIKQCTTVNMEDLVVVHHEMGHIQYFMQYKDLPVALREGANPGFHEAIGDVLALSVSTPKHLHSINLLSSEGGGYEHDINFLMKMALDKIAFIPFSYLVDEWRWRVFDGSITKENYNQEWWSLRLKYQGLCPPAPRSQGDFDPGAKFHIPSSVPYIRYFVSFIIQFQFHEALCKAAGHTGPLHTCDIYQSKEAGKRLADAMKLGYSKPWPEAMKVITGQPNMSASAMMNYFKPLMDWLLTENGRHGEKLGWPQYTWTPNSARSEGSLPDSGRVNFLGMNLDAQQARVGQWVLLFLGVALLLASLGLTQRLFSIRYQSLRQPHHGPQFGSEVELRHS
Protocol: The product, His-Leu, was then derivatized to a fluorophore by the addition of 2% o-phthalaldehyde (0.1 mL) in MeOH, followed by incubation at 25° C. for 8 minutes, addition of 2N HCl (0.2 mL), and then measuring fluorescence after 15 minutes incubation at 25° C.
(§1) The fluorescence intensity (arbitrary units) was determined using an SLM Aminco model 8000 spectrofluorometer equipped with a temperature regulated cell using an excitation wavelength at 360 nm and with an emission wavelength at 490 nm. The amount of His-Leu formed with time was determined from standard curves of fluorescence versus concentration of His-Leu (Sigma).
Inhibition constants were determined from double reciprocal plots of rate of product formation versus substrate concentration in the absence and presence of inhibitor.

rabbit kidney ACE [2] = target: T1, rabbit kidney ACE; assay: in vitro inhibition of ACE by soluble compound pools (deconvolution analysis of library, fluorometric assay, IC50); format: biochemical; details: identified by iterative assay and sub-library resynthesis
Description: Functionalized prolines and proline analogs are frequently found as the C-terminal residue in numerous ACE inhibitors. Using the methods described herein, a library of prolines and proline analogs has been prepared. The library was formed by the split synthesis method^35, using four amino acids, four aldehydes, five olefins, and three mercaptoacyl chlorides as shown in FIG. 3 below. […] After cleavage from the resin (10% TFA in dichloromethane) and deacetylation of the protected mercaptoacyl proline products with ethylenediamine, the library was screened for in vitro inhibition of ACE^33 as soluble compound pools through four iterations of assay and sub-library resynthesis. At each step of this deconvolution analysis, the building block affording the most inhibitory pool was selected for the subsequent sub-library resynthesis.
To each product was added 200 μ.LAMBDA. of 1.0M ethylenediamine in methanol under nitrogen. […] The ACE inhibitory activity of each pool was immediately determined. […]
as §1, with “(Sigma). […]” for “(Sigma).”

COC(=O)[C@@H]1C[C@H](C(=O)O)N(C(=O)[C@H](C)CS)[C@@H]1c1ccccc1 (single isomer, unassigned) [earlier eluting isomer]
Ki (rabbit kidney ACE [1]; after deacetylation, isomer assigned 2-R, read-out: Ki (individual diastereomers after deacetylation, earlier eluting isomer)): > 1000 nM

COC(=O)[C@H]1C[C@@H](C(=O)O)N(C(=O)[C@H](C)CS)[C@H]1c1ccccc1 [Compound 9, 1-(3'-thio-2'(S)-methyl-1'-oxopropyl)-5-phenyl-2,4-pyrrolidinedicarboxylicacid 4-methyl ester]
ACE inhibitory activity in words (library deconvolution) (rabbit kidney ACE [2]): potent ACE inhibitor | Ki (rabbit kidney ACE [1]; 50 pM enzyme, 20 minute preincubation, assay times 10 or 20 minutes, pH 8.3, read-out: Ki (dissociation constant of the enzyme-inhibitor complex)): 0.16 ± 0.05 nM | Ki (rabbit kidney ACE [1]; after deacetylation, read-out: Ki (individual diastereomers after deacetylation, later eluting isomer)): ~0.16 nM | type of inhibition (rabbit kidney ACE [1]; double reciprocal plots, 50 pM enzyme, 20 minute preincubation): competitive type inhibition | fold more active than captopril (rabbit kidney ACE [1]; relative to captopril in the same assay): approximately 3 fold
